From PMC2894858 (PLoS ONE, 2010)
Like-named read-outs stand apart in the source and are kept apart here. Non-standard residues stand in square brackets, D forms with d. Residues, ends and D or L forms follow the SMILES beside them. Aib = CC(C)(N)C(=O)O

Assays:
BoNT/A LC [1] = target: T1, BoNT/A LC (Clostridium botulinum, UniProt P0DPI0); conditions: cited from earlier work; for IC50: read-out: Reported Ki (cell: IC50)
BoNT/A LC [2] = target: T1, BoNT/A LC; test: biochemical; format: biochemical; conditions: for Ki range in words: pH 7.3
Target sequence in this assay (P0DPI0 2-448 limits assumed): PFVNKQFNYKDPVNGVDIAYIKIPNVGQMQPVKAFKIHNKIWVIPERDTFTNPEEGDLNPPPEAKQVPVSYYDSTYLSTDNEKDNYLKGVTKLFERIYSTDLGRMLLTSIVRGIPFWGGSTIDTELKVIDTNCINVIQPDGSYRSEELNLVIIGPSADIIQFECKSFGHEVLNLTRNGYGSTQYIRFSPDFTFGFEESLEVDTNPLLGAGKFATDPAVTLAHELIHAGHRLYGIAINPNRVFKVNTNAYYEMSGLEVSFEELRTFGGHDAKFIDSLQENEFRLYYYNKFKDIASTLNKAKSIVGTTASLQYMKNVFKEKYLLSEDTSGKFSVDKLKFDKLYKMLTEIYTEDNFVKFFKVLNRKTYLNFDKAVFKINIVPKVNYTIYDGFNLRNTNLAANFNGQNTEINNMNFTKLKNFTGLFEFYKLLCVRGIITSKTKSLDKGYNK

Row | Compound | IC50 (BoNT/A LC [1]) [µM] | Ki (BoNT/A LC [2]) [µM] | Ki range in words (BoNT/A LC [2]) | further results
1 | O=C(/C=C/c1ccc(Cl)cc1)NO [4-chlorocinnamic hydroxamate] | 15 | – | – | –
2 | NC(N)=NCCC[C@H](N)C(=O)NO [ArgHX, arginine hydroxamate] | 60 | – | – | –
3 | CSCC[C@H](NC(=O)[C@H](C)NC(=O)C(C)(C)NC(=O)[C@H](Cc1c[nH]c2ccccc12)NC(=O)[C@H](CCCNC(=N)N)NC(=O)[C@@H](N)CCCNC(=N)N)C(=O)N[C@@H](CC(C)C)C(N)=O [JTH-NB72-38] (H-RRW[Aib]AML-NH2) | – | 0.991 ± 0.117 | nM range | –
4 | CSCC[C@H](NC(=O)[C@H](C)NC(=O)C(C)(C)NC(=O)[C@H](Cc1ccccc1)NC(=O)[C@H](CCCNC(=N)N)NC(=O)[C@@H](N)CCCNC(=N)N)C(=O)N[C@@H](CC(C)C)C(N)=O [JTH-NB72-39] (H-RRF[Aib]AML-NH2) | – | 0.638 ± 0.092 | nM range | –
5 | Fmoc-L-Leu-OH (0.124 g, 0.350 mmol, 3.50 equiv), Fmoc-L-Met-OH (0.130 g, 0.350 mmol, 3.50 equiv), Fmoc-L-Ala-OH (0.115 g, 0.350 mmol, 3.50 equiv), Fmoc-Aib-OH (0.114 g, 0.350 mmol, 3.50 equiv), Fmoc-L-1-Nal-OH (0.153 g, 0.350 mmol, 3.50 equiv), Fmoc-L-Arg(Pbf)-OH (0.227 g, 0.350 mmol, 3.50 equiv), Fmoc-L-Arg(Pbf)-OH (0.227 g, 0.350 mmol, 3.50 equiv) [JTH-NB72-35] | – | – | nM range | potency compared with I1 (BoNT/A LC [2]): none of them were as potent as I1; potency rank among the three reported PLMs (BoNT/A LC [2]): the most potent of the three reported PLMs
6 | QRATKM | 133 | – | – | Ki (BoNT/A LC [1]): 133 µM
